We go through 17 compounds from patent publication US12441733B2, “Substituted 2,4-dioxotetrahydropyrimidines as intermediates in the synthesis of bruton's tyrosine kinase inhibitors” (Novartis AG, priority 2018, dated 2025).

Some results are limits rather than exact numbers.

The test system of this assay is OCI-LY3 cells. As to the kind of experiment: Resazurin cell viability (proliferation) assay in OCI-LY3 DLBCL cells. Conditions: Homo sapiens, OCI-LY3 cells (BTK independent), 72 h, 50% growth inhibition vs vehicle, read-out: OCI-LY3 Prol GI50. The class given is cell-based. The essentials: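 Cells were seeded at 1×10^4 per well and dosed 3 h later: 8-point 1:4 dilutions from 10 μM (OCI-LY3), in triplicate, 72 h at 37 °C. Resazurin (13 μg/ml final) was added for the last 2 h and fluorescence read at 530/600 nm. GI50 is relative to DMSO vehicle, typically from ≥2 independent experiments.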
On the technique in general: Alamar Blue is a resazurin reagent that responds to reducing activity.
For `COc1ccc(C(=O)N2CCC3(CCN(Cc4ccc(-c5cc6c(-c7cc(F)cc(NC(=O)c8ccc(C(C)(C)O)cc8F)c7C)ncnc6[nH]5)cc4)CC3)CC2)cc1N1CCC(=O)NC1=O` [Compound 9, N-(3-(6-(4-((9-(3-(2,4-Dioxotetrahydropyrimidin-1(2H)-yl)-4-methoxybenzoyl)-3,9-diazaspiro[5.5]undecan-3-yl)methyl)phenyl)-7H-pyrrolo[2.3-d]pyrimidin-4-yl)-5-fluoro-2-methylphenyl)-2-fluoro-4-(2-hydroxypropan-2-yl)benzamide], the GI50 came to 3.87 µM.

With `Cc1c(NC(=O)c2ccc(C(C)(C)O)cc2F)cc(F)cc1-c1ncnc2[nH]c(-c3ccc(CN4CCC5(CC4)CCN(C(=O)c4ccc(F)c(N6CCC(=O)NC6=O)c4)CC5)cc3)cc12` [Compound 14, N-(3-(6-(4-((9-(3-(2,4-Dioxotetrahydropyrimidin-1(2H)-yl)-4-fluorobenzoyl)-3,9-diazaspiro[5.5]undecan-3-yl)methyl)phenyl)-7H-pyrrolo[2.3-d]pyrimidin-4-yl)-5-fluoro-2-methylphenyl)-2-fluoro-4-(2-hydroxypropan-2-yl)benzamide], the GI50 stood at 5.98 µM.

For `Cc1c(NC(=O)c2ccc(C(C)(C)O)cc2F)cc(F)cc1-c1ncnc2[nH]c(-c3ccc(CCN4CCC5(CC4)CCN(C(=O)c4cccc(N6CCC(=O)NC6=O)c4)CC5)cc3)cc12` [Compound 12, N-(3-(6-(4-(2-(9-(3-(2,4-Dioxotetrahydropyrimidin-1(2H)-yl)benzoyl)-3,9-diazaspiro[5,5]undecan-3-yl)ethyl)phenyl)-7H-pyrrolo[2,3-d]pyrimidin-4-yl)-5-fluoro-2-methylphenyl)-2-fluoro-4-(2-hydroxypropan-2-yl)benzamide], the GI50 stood at 3.83 µM.

Turning to `COc1ccc(C(=O)NCCN2CCC3(CC2)CCN(Cc2ccc(-c4cc5c(-c6cc(F)cc(NC(=O)c7ccc(C(C)(C)O)cc7F)c6C)ncnc5[nH]4)cc2)CC3)cc1N1CCC(=O)NC1=O` [Compound 44, N-(3-(6-(4-((9-(2-(3-(2,4-dioxotetrahydropyrimidin-1(2H)-yl)-4-methoxybenzamido)ethyl)-3,9-diazaspiro[5.5]undecan-3-yl)methyl)phenyl)-7H-pyrrolo[2,3-d]pyrimidin-4-yl)-5-fluoro-2-methylphenyl)-2-fluoro-4-(2-hydroxypropan-2-yl)benzamide], the GI50 was 3.05 µM.

In the case of `COc1ccc(C(=O)N2CCC3(CCN(CCc4ccc(-c5cc6c(-c7cc(F)cc(NC(=O)c8ccc(C(C)(C)O)cc8F)c7C)ncnc6[nH]5)cc4)CC3)CC2)cc1N1CCC(=O)NC1=O` [Compound 31, N-(3-(6-(4-(2-(9-(3-(2,4-Dioxotetrahydropyrimidin-1(2H)-yl)-4-methoxybenzoyl)-3,9-diazaspiro[5.5]undecan-3-yl)ethyl)phenyl)-7H-pyrrolo[2,3-d]pyrimidin-4-yl)-5-fluoro-2-methylphenyl)-2-fluoro-4-(2-hydroxypropan-2-yl)benzamide], the GI50 turned out to be 5.64 µM.

For `CCOc1ccc(C(=O)N2CCC3(CCN(Cc4ccc(-c5cc6c(-c7cc(F)cc(NC(=O)c8ccc(C(C)(C)O)cc8F)c7C)ncnc6[nH]5)cc4)CC3)CC2)cc1N1CCC(=O)NC1=O` [Compound 4, N-(3-(6-(4-((9-(3-(2,4-Dioxotetrahydropyrimidin-1(2H)-yl)-4-ethoxybenzoyl)-3,9-diazaspiro[5.5]undecan-3-yl)methyl)phenyl)-7H-pyrrolo[2,3-d]pyrimidin-4-yl)-5-fluoro-2-methylphenyl)-2-fluoro-4-(2-hydroxypropan-2-yl)benzamide], the GI50 amounted to 4.69 µM.

For `Cc1c(NC(=O)c2ccc(C(C)(C)O)cc2F)cc(F)cc1-c1ncnc2[nH]c(-c3ccc(CCN4CCC5(CC4)CCN(C(=O)c4ccc(F)c(N6CCC(=O)NC6=O)c4)CC5)cc3)cc12` [Compound 47, N-(3-(6-(4-(2-(9-(3-(2,4-dioxotetrahydropyrimidin-1(2H)-yl)-4-fluorobenzoyl)-3,9-diazaspiro[5.5]undecan-3-yl)ethyl)phenyl)-7H-pyrrolo[2,3-d]pyrimidin-4-yl)-5-fluoro-2-methylphenyl)-2-fluoro-4-(2-hydroxypropan-2-yl)benzamide], the GI50 was found to be 4.58 µM.

For the compound `COc1ccc(C(=O)N2CCC3(CC2)CCN(C(C)(C)Cc2ccc(-c4cc5c(-c6cc(F)cc(NC(=O)c7ccc(C(C)(C)O)cc7F)c6C)ncnc5[nH]4)cc2)CC3)cc1N1CCC(=O)NC1=O` [Compound 20, N-(3-(6-(4-(2-(9-(3-(2,4-Dioxotetrahydropyrimidin-1(2H)-yl)-4-methoxybenzoyl)-3,9-diazaspiro[5.5]undecan-3-yl)-2-methylpropyl)phenyl)-7H-pyrrolo[2,3-d]pyrimidin-4-yl)-5-fluoro-2-methylphenyl)-2-fluoro-4-(2-hydroxypropan-2-yl)benzamide], the GI50 came out at 7.9 µM.

In the case of `COc1ccc(C(=O)N2CCC(OC3CCN(CCc4ccc(-c5cc6c(-c7cc(F)cc(NC(=O)c8ccc(C(C)(C)O)cc8F)c7C)ncnc6[nH]5)cc4)CC3)CC2)cc1N1CCC(=O)NC1=O` [Compound 34, N-(3-(6-(4-(2-(4-((1-(3-(2,4-Dioxotetrahydropyrimidin-1(2H)-yl)-4-methoxybenzoyl)piperidin-4-yl)oxyl)piperidin-1-yl)ethyl)phenyl)-7H-pyrrolo[2,3-d]pyrimidin-4-yl)-5-fluoro-2-methylphenyl)-2-fluoro-4-(2-hydroxypropan-2-yl)benzamide], the GI50 was above 10 µM.

As to `Cc1cc(F)c(C(=O)NCCCCCNCc2ccc(-c3cc4c(-c5cc(F)cc(NC(=O)c6ccc(C(C)(C)O)cc6F)c5C)ncnc4[nH]3)cc2)cc1N1CCC(=O)NC1=O` [Compound 29, 5-(2,4-Dioxotetrahydropyrimidin-1(2H)-yl)-2-fluoro-N—(S-((4-(4-(5-fluoro-3-(2-fluoro-4-(2-hydroxypropan-2-yl)benzamido)-2-methylphenyl)-7H-pyrrolo[2,3-d]pyrimidin-6-yl)benzyl)amino)pentyl)-4-methylbenzamide], the GI50 worked out at 8.62 µM.

`Cc1ccc(C(=O)N(C)CCCCCNCc2ccc(-c3cc4c(-c5cc(F)cc(NC(=O)c6ccc(C(C)(C)O)cc6F)c5C)ncnc4[nH]3)cc2)cc1N1CCC(=O)NC1=O` [Compound 30, 3-(2,4-Dioxotetrahydropyrimidin-1(2H)-yl)-N-(5-((4-(4-(5-fluoro-3-(2-fluoro-4-(2-hydroxypropan-2-yl)benzamido)-2-methylphenyl)-7H-pyrrolo[2,3-d]pyrimidin-6-yl)benzyl)amino)pentyl)-N,4-dimethylbenzamide]: the GI50 was above 10 µM.

As for `COc1ccc(C(=O)NCCN2CCOC3(CCN(Cc4ccc(-c5cc6c(-c7cc(F)cc(NC(=O)c8ccc(C(C)(C)O)cc8F)c7C)ncnc6[nH]5)cc4)CC3)C2)cc1N1CCC(=O)NC1=O` [Compound 39, N-(3-(6-(4-((4-(2-(3-(2,4-dioxotetrahydropyrimidin-1(2H)-yl)-4-methoxybenzamido)ethyl)-1-oxa-4,9-diazaspiro[5.5]undecan-9-yl)methyl)phenyl)-7H-pyrrolo[2,3-d]pyrimidin-4-yl)-5-fluoro-2-methylphenyl)-2-fluoro-4-(2-hydroxypropan-2-yl)benzamide], the GI50 came out at 7.16 µM.

As to `COc1ccc(C(=O)N2CCC(OC3CCN(Cc4ccc(-c5cc6c(-c7cc(F)cc(NC(=O)c8ccc(C(C)(C)O)cc8F)c7C)ncnc6[nH]5)cc4)CC3)CC2)cc1N1CCC(=O)NC1=O` [Compound 8, N-(3-(6-(4-((4-((1-(3-(2,4-dioxotetrahydropyrimidin-1(2H)-yl)-4-methoxybenzoyl)piperidin-4-yl)oxyl)piperidin-1-yl)methyl)phenyl)-7H-pyrrolo[2,3-d]pyrimidin-4-yl)-5-fluoro-2-methylphenyl)-2-fluoro-4-(2-hydroxypropan-2-yl)benzamide], the GI50 is 4.85 µM.

As for `COc1ccc(C(=O)N2CCC(CN3CCC(Oc4ccc(-c5cc6c(-c7cc(F)cc(NC(=O)c8ccc(C(C)(C)O)cc8F)c7C)ncnc6[nH]5)cc4)CC3)CC2)cc1N1CCC(=O)NC1=O` [Compound 19, N-(3-(6-(4-((1-((1-(3-(2,4-Dioxotetrahydropyrimidin-1(2H)-yl)-4-methoxybenzoyl)piperidin-4-yl)methyl)piperidin-4-yl)oxyl)phenyl)-7H-pyrrolo[2,3-d]pyrimidin-4-yl)-5-fluoro-2-methylphenyl)-2-fluoro-4-(2-hydroxypropan-2-yl)benzamide], the GI50 stood at 4.46 µM.

For the compound `COc1ccc(C(=O)N2CCN(C(=O)N3CCN(Cc4ccc(-c5cc6c(-c7cc(F)cc(NC(=O)c8ccc(C(C)(C)O)cc8F)c7C)ncnc6[nH]5)cc4)CC3)CC2)cc1N1CCC(=O)NC1=O` [Compound 22, N-(3-(6-(4-((4-(4-(3-(2,4-Dioxotetrahydropyrimidin-1(2H)-yl)-4-methoxybenzoyl)piperazine-1-carbonyl)piperazin-1-yl)methyl)phenyl)-7H-pyrrolo[2,3-d]pyrimidin-4-yl)-5-fluoro-2-methylphenyl)-2-fluoro-4-(2-hydroxypropan-2-yl)benzamide], the GI50 was found to be 4.11 µM.

Regarding `Cc1c(NC(=O)c2ccc(C(C)(C)O)cc2F)cc(F)cc1-c1ncnc2[nH]c(-c3ccc(COC4CCN(CCC5CCN(C(=O)c6ccc(F)c(N7CCC(=O)NC7=O)c6)CC5)CC4)cc3)cc12` [Compound 6, N-(3-(6-(4-(((1-(2(1-(3-(2,4-dioxotetrahydropyrimidin-1(2H)-yl)-4-fluorobenzoyl)piperidin-4-yl)ethyl)piperidin-4-yl)oxyl)methyl)phenyl)-7H-pyrrolo[2,3-d]pyrimidin-4-yl)-5-fluoro-2-methylphenyl)-2-fluoro-4-(2-hydroxypropan-2-yl)benzamide], the GI50 came to 3.43 µM.

`Cc1ccc(C(=O)N2CCC3(CCN(Cc4ccc(-c5cc6c(-c7cc(F)cc(NC(=O)c8ccc(C(C)(C)O)cc8F)c7C)ncnc6[nH]5)cc4)CC3)CC2)cc1N1CCC(=O)NC1=O` [Compound 27, N-(3-(6-(4-((9-(3-(2,4-Dioxotetrahydropyrimidin-1(2H)-yl)-4-methylbenzoyl)-3,9-diazaspiro[5.5]undecan-3-yl)methyl)phenyl)-7H-pyrrolo[2,3-d]pyrimidin-4-yl)-5-fluoro-2-methylphenyl)-2-fluoro-4-(2-hydroxypropan-2-yl)benzamide]: the GI50 was found to be 4.08 µM.

Broadly, the GI50 is the concentration at which growth is held to half of that of the control.
